Reference: patent US11040981B2, “Pyrrolotriazine compounds and methods of inhibiting TAM kinases” (Syros Pharmaceuticals, Inc., priority 2017, dated 2021)

Legend:
[1] = target: T1, MERTK (Homo sapiens, UniProt Q12866); test: TR-FRET kinase activity assay, MERTK; type: biochemical; settings: for IC50: TR-FRET activity assay, ATP at Km, 60 minutes, read-out: Mer IC50
T1 sequence (Q12866 21-999): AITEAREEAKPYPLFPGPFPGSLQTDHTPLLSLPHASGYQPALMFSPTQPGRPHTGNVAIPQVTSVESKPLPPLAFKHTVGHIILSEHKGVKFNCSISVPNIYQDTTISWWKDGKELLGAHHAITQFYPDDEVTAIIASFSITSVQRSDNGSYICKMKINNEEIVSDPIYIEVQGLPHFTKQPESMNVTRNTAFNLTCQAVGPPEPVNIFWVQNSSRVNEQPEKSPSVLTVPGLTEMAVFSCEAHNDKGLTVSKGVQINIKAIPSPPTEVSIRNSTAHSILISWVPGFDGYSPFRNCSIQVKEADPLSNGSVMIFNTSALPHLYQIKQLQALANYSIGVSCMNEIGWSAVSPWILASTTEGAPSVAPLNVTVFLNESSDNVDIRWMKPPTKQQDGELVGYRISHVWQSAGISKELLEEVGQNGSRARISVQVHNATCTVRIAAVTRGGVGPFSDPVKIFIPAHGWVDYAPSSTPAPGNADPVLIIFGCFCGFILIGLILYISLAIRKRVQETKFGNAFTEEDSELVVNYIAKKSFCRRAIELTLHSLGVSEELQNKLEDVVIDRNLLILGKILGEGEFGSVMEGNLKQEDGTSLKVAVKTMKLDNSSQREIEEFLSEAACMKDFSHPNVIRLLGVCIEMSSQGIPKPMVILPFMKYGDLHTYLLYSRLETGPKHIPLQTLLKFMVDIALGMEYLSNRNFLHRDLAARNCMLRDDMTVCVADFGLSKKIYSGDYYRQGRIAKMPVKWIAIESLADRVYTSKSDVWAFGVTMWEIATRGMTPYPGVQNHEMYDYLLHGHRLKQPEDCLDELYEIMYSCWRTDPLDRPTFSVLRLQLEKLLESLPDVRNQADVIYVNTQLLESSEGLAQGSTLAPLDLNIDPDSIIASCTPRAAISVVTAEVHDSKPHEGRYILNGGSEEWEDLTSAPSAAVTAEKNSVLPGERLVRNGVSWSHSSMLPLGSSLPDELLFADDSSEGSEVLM
Method in brief: (§1)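 IC50 reflects the drop in TR-FRET between Eu anti-phosphotyrosine antibody and labelled peptide after a 60-minute room-temperature reaction. Buffer was 50 mM HEPES pH 7.5 with 10 mM MgCl2, 1 mM EGTA, 0.01% Brij 35 and 1 mM DTT, with ATP at Km per enzyme and EDTA quench.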

[2] = target: T2, TYRO3 (Homo sapiens, UniProt Q06418); test: TR-FRET kinase activity assay, TYRO3; type: biochemical; settings: ATP at Km, 60 minutes
T2 sequence (Q06418 41-890): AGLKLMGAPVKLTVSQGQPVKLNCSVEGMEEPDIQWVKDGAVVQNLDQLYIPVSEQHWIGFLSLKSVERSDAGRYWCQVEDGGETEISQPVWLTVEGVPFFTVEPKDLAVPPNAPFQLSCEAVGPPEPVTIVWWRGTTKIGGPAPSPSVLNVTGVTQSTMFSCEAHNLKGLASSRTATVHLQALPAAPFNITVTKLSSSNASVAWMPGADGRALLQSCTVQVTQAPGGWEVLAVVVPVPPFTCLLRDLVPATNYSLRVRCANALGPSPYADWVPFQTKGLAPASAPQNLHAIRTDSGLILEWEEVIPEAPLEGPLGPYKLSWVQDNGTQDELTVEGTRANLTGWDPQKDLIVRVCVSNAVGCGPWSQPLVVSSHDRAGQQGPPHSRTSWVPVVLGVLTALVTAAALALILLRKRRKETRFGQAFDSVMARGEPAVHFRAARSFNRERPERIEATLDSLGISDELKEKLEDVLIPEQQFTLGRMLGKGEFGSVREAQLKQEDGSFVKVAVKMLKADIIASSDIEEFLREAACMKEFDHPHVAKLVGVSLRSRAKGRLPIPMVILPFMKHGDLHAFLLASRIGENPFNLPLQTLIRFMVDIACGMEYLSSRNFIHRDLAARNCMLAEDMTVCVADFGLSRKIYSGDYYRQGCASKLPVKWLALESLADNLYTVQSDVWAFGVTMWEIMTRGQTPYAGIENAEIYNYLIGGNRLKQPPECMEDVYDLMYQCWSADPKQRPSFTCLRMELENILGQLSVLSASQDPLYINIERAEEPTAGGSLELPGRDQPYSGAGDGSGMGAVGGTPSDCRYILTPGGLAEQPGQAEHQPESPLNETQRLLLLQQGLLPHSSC
Method in brief: as §1

[3] = ratio of Mer to FLT3: FLT3 IC50/Mer IC50
[4] = ratio calculated as FLT3 IC50/Mer IC50

Row | Structure (SMILES) | IC50 [1] [nM] | FLT3/Mer ratio (FLT3 IC50/Mer IC50) [1, 3] | IC50 [2] [nM] | FLT3/Mer ratio (FLT3 IC50/Mer IC50) [1, 4]
1 | CC[C@H](C)Nc1ncc2c(-c3ccc(CN4CCN(C)CC4)cc3)cc(C3CCC(C)(O)CC3)n2n1 (stereo in doubt) [Compound 131, (cis)-4-(2-((S)-sec-butylamino)-5-(4-((4-methylpiperazin-1-yl)methyl)phenyl)pyrrolo[2,1-f][1,2,4]triazin-7-yl)-1-methylcyclohexanol] | ≤ 100 | +++ (“+++” represents a ratio of >100) | ≤ 100 | 
2 | COC[C@H](C)Nc1ncc2c(-c3ccnc(N4CCN(C(=O)OC5COC5)CC4)c3)cc([C@H]3CC[C@H](O)CC3)n2n1 [Compound 504] | ≤ 100 |  | ≤ 100 | +++ (“+++” represents a ratio of >100)
3 | COC[C@H](C)Nc1ncc2c(-c3cnn(C(C)(C)C(=O)N4CCC(C)(C#N)CC4)c3)cc([C@H]3CC[C@H](O)CC3)n2n1 [Compound 451] | ≤ 100 |  | ≤ 100 | +++ (“+++” represents a ratio of >100)
4 | CC[C@H](C)Nc1ncc2c(-c3ccc(CN4CCN(C)CC4)cc3)cc([C@H]3CC[C@](C)(O)CC3)n2n1 (relative stereo) [Compound 132, (trans)-4-(2-((S)-sec-butylamino)-5-(4-((4-methylpiperazin-1-yl)methyl)phenyl)pyrrolo[2,1-f][1,2,4]triazin-7-yl)-1-methylcyclohexanol] | ≤ 100 | ++ (“++” represents a ratio of between 10 and 100) | ≤ 100 | 
5 | COC[C@H](C)Nc1ncc2c(-c3ccnc(N4CC5(COC5)C4)c3)cc([C@H]3CC[C@H](O)CC3)n2n1 [Compound 426] | ≤ 100 |  | ≤ 100 | +++ (“+++” represents a ratio of >100)
6 | COC[C@H](C)Nc1ncc2c(C3=C[C@H]4CC[C@@H](C3)N4C)cc([C@H]3CC[C@H](O)CC3)n2n1 [Compound 494] | ≤ 100 |  | ≤ 100 | +++ (“+++” represents a ratio of >100)
7 | COC[C@H](C)Nc1ncc2c(-c3csc(C(=O)N4CCOCC4)c3)cc([C@H]3CC[C@H](O)CC3)n2n1 [Compound 444] | ≤ 100 |  | ≤ 100 | +++ (“+++” represents a ratio of >100)
8 | COC[C@H](C)Nc1ncc2c(C3=C[C@@H]4CC[C@H](C3)N4C)cc([C@H]3CC[C@H](O)CC3)n2n1 [Compound 465] | ≤ 100 |  | ≤ 100 | +++ (“+++” represents a ratio of >100)
9 | COC[C@H](C)Nc1ncc2c(C3=CCNCC3)cc([C@H]3CC[C@H](O)CC3)n2n1 [Compound 443] | ≤ 100 |  | ≤ 100 | +++ (“+++” represents a ratio of >100)
10 | COC[C@H](C)Nc1ncc2c(C3=C[C@@H]4CC[C@H](C3)N4C(=O)N3CCOCC3)cc([C@H]3CC[C@H](O)CC3)n2n1 [Compound 463] | ≤ 100 |  | ≤ 100 | +++ (“+++” represents a ratio of >100)
11 | CCC(=O)N1CCN(c2cc(-c3cc([C@H]4CC[C@H](O)CC4)n4nc(N[C@@H](C)COC)ncc34)ccn2)CC1 [Compound 432] | ≤ 100 |  | ≤ 100 | +++ (“+++” represents a ratio of >100)
12 | COC[C@H](C)Nc1ncc2c(-c3cccc(C4CCc5nc(C)[nH]c5C4)c3)cc([C@H]3CC[C@H](O)CC3)n2n1 (stereo partly drawn) [Compound 498] | ≤ 100 |  | ≤ 100 | +++ (“+++” represents a ratio of >100)
13 | COC[C@H](C)Nc1ncc2c(-c3ccnc(N4CCN(C5COC5)CC4)c3)cc([C@H]3CC[C@H](O)CC3)n2n1 [Compound 486] | ≤ 100 |  | ≤ 100 | +++ (“+++” represents a ratio of >100)
14 | COC[C@H](C)Nc1ncc2c(C#CC(C)(C)C(=O)N3CCOCC3)cc([C@H]3CC[C@H](O)CC3)n2n1 [Compound 449] | ≤ 100 |  | ≤ 100 | +++ (“+++” represents a ratio of >100)
15 | COC[C@H](C)Nc1ncc2c(-c3cnn(C[C@@H]4CCO4)c3)cc([C@H]3CC[C@H](O)CC3)n2n1 [Compound 474] | ≤ 100 |  | ≤ 100 | +++ (“+++” represents a ratio of >100)
16 | C[C@@H](CC(F)F)Nc1ncc2c(-c3ccc(S(C)(=O)=O)nc3)cc([C@H]3CC[C@H](O)CC3)n2n1 [Compound 489] | ≤ 100 |  | ≤ 100 | +++ (“+++” represents a ratio of >100)
17 | COC[C@H](C)Nc1ncc2c(-c3ccnc(N4CCNCC4)c3)cc([C@H]3CC[C@H](O)CC3)n2n1 [Compound 434] | ≤ 100 |  | ≤ 100 | +++ (“+++” represents a ratio of >100)
18 | COC[C@H](C)Nc1ncc2c(-c3ccnc(N4CCC5(CCO5)CC4)c3)cc([C@H]3CC[C@H](O)CC3)n2n1 [Compound 430] | ≤ 100 |  | ≤ 100 | +++ (“+++” represents a ratio of >100)
19 | COC[C@H](C)Nc1ncc2c(-c3cnn(C[C@@H]4CCO4)c3)cc([C@H]3CC[C@H](O)CC3)n2n1 [Compound 478] | ≤ 100 |  | ≤ 100 | +++ (“+++” represents a ratio of >100)
20 | COC[C@H](C)Nc1ncc2c(C3=C[C@H]4CC[C@@H](C3)N4C(=O)N3CCOCC3)cc([C@H]3CC[C@H](O)CC3)n2n1 [Compound 469] | ≤ 100 |  | ≤ 100 | +++ (“+++” represents a ratio of >100)
21 | C[C@@H](CC(F)(F)F)Nc1ncc2c(C3=CCNCC3)cc([C@H]3CC[C@H](O)CC3)n2n1 [Compound 442] | ≤ 100 |  | ≤ 100 | ++ (“++” represents a ratio of between 10 and 100)
22 | COC[C@H](C)Nc1ncc2c(-c3cnn(C(C)(C)C(=O)N4CCOCC4)c3)cc(C3CCc4[nH]ncc4C3)n2n1 (stereo partly drawn) [Compound 488] | ≤ 100 |  | ≤ 100 | +++ (“+++” represents a ratio of >100)
23 | COC[C@H](C)Nc1ncc2c(-c3ccnc(NC4CCOCC4)c3)cc([C@H]3CC[C@H](O)CC3)n2n1 [Compound 431] | ≤ 100 |  | ≤ 100 | +++ (“+++” represents a ratio of >100)
24 | COC[C@H](C)Nc1ncc2c(C#N)cc([C@H]3CC[C@H](O)CC3)n2n1 [Compound 481] | ≤ 100 |  | 100 to 1000 | +++ (“+++” represents a ratio of >100)
25 | COC[C@H](C)Nc1ncc2c(C3=C[C@H]4CC[C@@H](C3)N4CC(F)(F)F)cc([C@H]3CC[C@H](O)CC3)n2n1 [Compound 492] | ≤ 100 |  | ≤ 100 | +++ (“+++” represents a ratio of >100)
26 | COC[C@H](C)Nc1ncc2c(-c3ccnc(N4CCOCC4=O)c3)cc([C@H]3CC[C@H](O)CC3)n2n1 [Compound 423] | ≤ 100 |  | ≤ 100 | +++ (“+++” represents a ratio of >100)
